The assay addresses T1, ligand binding domain of human ROR gamma (Homo sapiens, UniProt P51449).
T1 construct: NM_001001523; expressed in transfected cells; host or cells: HEK293T
T1 sequence (P51449 247-497 isoform P51449-2): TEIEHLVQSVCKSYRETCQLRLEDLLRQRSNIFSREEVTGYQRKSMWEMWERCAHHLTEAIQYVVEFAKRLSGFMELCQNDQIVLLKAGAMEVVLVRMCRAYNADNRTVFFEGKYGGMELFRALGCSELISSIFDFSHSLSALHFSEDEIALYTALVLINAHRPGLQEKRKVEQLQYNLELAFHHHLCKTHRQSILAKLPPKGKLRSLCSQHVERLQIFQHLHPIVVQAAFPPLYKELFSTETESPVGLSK
Put plainly: ROR gamma reporter gene assay (GAL4-RORγ LBD luciferase, Dual-Glo). The format is cell-based. As to conditions: HEK293T cells transfected with pM-ROR gamma, 8 concentrations 3.5 nM to 10.5 μM, 24 h incubation; read-out: result (pIC50, inhibition of RORγ transcriptional activity) (converted). The method, then: Luciferase reporter gene assay was used to assess inhibition of RORγ transcriptional activity.
ROR gamma expression vector was prepared by inserting the ligand binding domain of human ROR gamma (amino acid 247-497 of Genbank Accession NO. NM_001001523) adjacent to the yeast GAL4 transcription factor DNA binding domain in the expression vector pM (Clontech). The resulting expression vector pM-ROR gamma was used in transfection experiments together with the pGL4 luciferase reporter plasmid (Promega) containing five copies of the UAS GAL4 recognition site and pRL-CMV plasmids (Promega) containing the constitutive CMV promoter and the renilla luciferase.
For preparing transfection reagent/DNA mixture, 1 μg pM-ROR gamma, 1 μg pGL4 5×UAS, 625 pg pRL-CMV and 6.25 μL FuGENE™ HD transfection reagent (Promega) were mixed in 0.25 mL OPTI-MEM™ (Life technologies) at room temperature. At the same time, Negative control DNA mixture was prepared by using 1 μg pM empty vector instead of pM-ROR gamma plasmid. After a fifteen minute incubation, 0.25 mL of transfection reagent/DNA mixture was added to 1,000,000 of HEK293T cells (ATCC) in 5 mL of OPTI-MEM™ containing 10% Charcoal Stripped Fetal Bovine Serum.
Transfected cells were seeded onto 384 well plate (10 μL/well) and the 7.5 nL of test compounds were added to the wells in 8 concentrations ranging from 3.5 nM to 10.5 μM. The compounds were dissolved in 100% DMSO and the final concentration of DMSO in the assay was 0.075%.
After 24 h of incubation at 37° C., 5% CO2 in a cell culture incubator, the Dual-Glo™ Luciferase Assay System was used to detect activity according to the manufacturer's instructions (Promega, Cat. No.: E2920).
Data was plotted and pIC50 values were calculated using the XLfit program (ID Business Solutions Ltd.).

Where only a bound is given, the exact number is not on record here.

For `CC(=O)Nc1cccc(Cl)c1C(=O)CN(Cc1cc(F)cc(F)c1)C(=O)c1cnn([C@H]2CC[C@H](C(=O)O)CC2)c1C(F)(F)F` [Example 13, trans-4-(4-((2-(2-acetamido-6-chlorophenyl)-2-oxoethyl)(3,5-difluorobenzyl)carbamoyl)-5-(trifluoromethyl)-1H-pyrazol-1-yl)cyclohexanecarboxylic acid], the IC50 was 93300 pM.
Regarding `O=C(CN(Cc1cc(F)cc(F)c1)C(=O)c1cnn([C@H]2CC[C@H](C(=O)O)CC2)c1C(F)(F)F)c1c(O)cccc1Cl` [Example 15, trans-4-(4-((2-(2-chloro-6-hydroxyphenyl)-2-oxoethyl)(3,5-difluorobenzyl)carbamoyl)-5-(trifluoromethyl)-1H-pyrazol-1-yl)cyclohexanecarboxylic acid], the IC50 was 95500 pM.
As to `CC1(C)CC[C@H](CN(CC(=O)c2c(Cl)cncc2Cl)C(=O)c2cnn([C@H]3CC[C@H](C(=O)O)CC3)c2C(F)(F)F)O1` [Example 16, trans-4-(4-((2-(3,5-dichloropyridin-4-yl)-2-oxoethyl)(((R)-5,5-dimethylTHF-2-yl)methyl)carbamoyl)-5-(trifluoromethyl)-1H-pyrazol-1-yl)cyclohexanecarboxylic acid], the IC50 was 117000 pM.
With `O=C(CN(Cc1cc(F)cc(F)c1)C(=O)c1cnn([C@H]2CC[C@H](C(=O)O)CC2)c1C1CC1)c1c(Cl)cncc1Cl` [Example 17, trans-4-(5-cyclopropyl-4-((2-(3,5-dichloropyridin-4-yl)-2-oxoethyl)(3,5-difluorobenzyl)carbamoyl)-1H-pyrazol-1-yl)cyclohexanecarboxylic acid], the IC50 is 24500 pM.
Turning to `O=C(CN(Cc1cc(F)cc(F)c1)C(=O)c1cnn([C@H]2CC[C@H](C(=O)O)CC2)c1C(F)(F)F)c1c(Cl)cc(C(F)F)cc1Cl` [Example 18, trans-4-(4-((2-(2,6-dichloro-4-(difluoromethyl)phenyl)-2-oxoethyl)(3,5-difluorobenzyl)carbamoyl)-5-(trifluoromethyl)-1H-pyrazol-1-yl)cyclohexanecarboxylic acid], the IC50 was 11700 pM.
With `CC1(O)CCC(CN(CC(=O)c2c(Cl)cncc2Cl)C(=O)c2cnn([C@H]3CC[C@H](C(=O)O)CC3)c2C(F)(F)F)CC1` (stereo partly drawn) [Example 19, trans-4-(4-((2-(3,5-dichloropyridin-4-yl)-2-oxoethyl)((4-hydroxy-4-methylcyclohexyl)methyl)carbamoyl)-5-(trifluoromethyl)-1H-pyrazol-1-yl)cyclohexanecarboxylic acid], the IC50 was above 1e+07 pM.
`O=C(CN(Cc1cc(F)cc(F)c1)C(=O)c1cnn([C@H]2CC[C@H](C(=O)O)CC2)c1C(F)F)c1c(Cl)cncc1Cl` [Example 20, trans-4-(4-((2-(3,5-Dichloropyridin-4-yl)-2-oxoethyl)(3,5-difluorobenzyl)carbamoyl)-5-(difluoromethyl)-1H-pyrazol-1-yl)cyclohexanecarboxylic acid]: the IC50 was 70800 pM.
For `Nc1nccc(Cl)c1C(=O)CN(Cc1cc(F)cc(F)c1)C(=O)c1cnn([C@H]2CC[C@H](C(=O)O)CC2)c1C(F)(F)F` [Example 21, trans-4-(4-((2-(2-amino-4-chloropyridin-3-yl)-2-oxoethyl)(3,5-difluorobenzyl)carbamoyl)-5-(trifluoromethyl)-1H-pyrazol-1-yl)cyclohexanecarboxylic acid] the value was above 1e+07 pM.
As for `N#Cc1ccccc1CN(CC(=O)c1c(Cl)cncc1Cl)C(=O)c1cnn([C@H]2CC[C@H](C(=O)O)CC2)c1C(F)(F)F` [Example 22, trans-4-(4-((2-cyanobenzyl)(2-(3,5-dichloropyridin-4-yl)-2-oxoethyl)carbamoyl)-5-(trifluoromethyl)-1H-pyrazol-1-yl)cyclohexanecarboxylic acid], the IC50 is above 1e+07 pM.
For `CC1(C)CC(CN(CC(=O)c2c(Cl)cncc2Cl)C(=O)c2cnn([C@H]3CC[C@H](C(=O)O)CC3)c2C(F)(F)F)C1` [Example 23, trans-4-(4-((2-(3,5-dichloropyridin-4-yl)-2-oxoethyl)((3,3-dimethylcyclobutyl)methyl)carbamoyl)-5-(trifluoromethyl)-1H-pyrazol-1-yl)cyclohexanecarboxylic acid], the IC50 is 24000 pM.
For the compound `O=C(O)C1CCC(n2ncc(C(=O)N(CCc3c(Cl)cncc3Cl)Cc3ccc(F)cc3)c2C(F)(F)F)CC1` (centres unmarked) [Example 24, 4-(4-((2-(3,5-dichloropyridin-4-yl)ethyl)(4-fluorobenzyl)carbamoyl)-5-(trifluoromethyl)-1H-pyrazol-1-yl)cyclohexanecarboxylic acid], the IC50 is 166000 pM.
For the compound `O=C(CN(Cc1ccc(F)cc1)C(=O)c1cnn([C@H]2CC[C@@H](C(=O)O)CC2)c1C(F)(F)F)c1c(Cl)cncc1Cl` [Example 25, cis-4-(4-((2-(3,5-dichloropyridin-4-yl)-2-oxoethyl)(4-fluorobenzyl)carbamoyl)-5-(trifluoromethyl)-1H-pyrazol-1-yl)cyclohexaneca rboxylic acid], the IC50 is 263000 pM.
As to `CC(C)CN(CC(=O)c1c(Cl)cncc1Cl)C(=O)c1cnn([C@H]2CC[C@H](C(=O)O)CC2)c1C(F)(F)F` [Example 26, trans-4-(4-((2-(3,5-dichloropyridin-4-yl)-2-oxoethyl)(isobutyl)carbamoyl)-5-(trifluoromethyl)-1H-pyrazol-1-yl)cyclohexanecarboxylic acid], the IC50 is 282000 pM.
For `CC(C)(C)CN(CC(=O)c1c(Cl)cncc1Cl)C(=O)c1cnn([C@H]2CC[C@H](C(=O)O)CC2)c1C(F)(F)F` [Example 27, trans-4-(4-((2-(3,5-dichloropyridin-4-yl)-2-oxoethyl)(neopentyl)carbamoyl)-5-(trifluoromethyl)-1H-pyrazol-1-yl)cyclohexanecarboxylic acid] the value was 56200 pM; for `O=C(CN(CC1CCC1)C(=O)c1cnn([C@H]2CC[C@H](C(=O)O)CC2)c1C(F)(F)F)c1c(Cl)cncc1Cl` [Example 28, trans-4-(4-((cyclobutylmethyl)(2-(3,5-dichloropyridin-4-yl)-2-oxoethyl)carbamoyl)-5-(trifluoromethyl)-1H-pyrazol-1-yl)cyclohexanecarboxylic acid], 195000 pM.
Regarding `O=C(CN(CC1CCCC1)C(=O)c1cnn([C@H]2CC[C@H](C(=O)O)CC2)c1C(F)(F)F)c1c(Cl)cncc1Cl` [Example 29, trans-4-(4-((cyclopentylmethyl)(2-(3,5-dichloropyridin-4-yl)-2-oxoethyl)carbamoyl)-5-(trifluoromethyl)-1H-pyrazol-1-yl)cyclohexanecarboxylic acid], the IC50 was 75900 pM.
`O=C(CN(CC1CCCCC1)C(=O)c1cnn([C@H]2CC[C@H](C(=O)O)CC2)c1C(F)(F)F)c1c(Cl)cncc1Cl` [Example 30, trans-4-(4-((cyclohexylmethyl)(2-(3,5-dichloropyridin-4-yl)-2-oxoethyl)carbamoyl)-5-(trifluoromethyl)-1H-pyrazol-1-yl)cyclohexanecarboxylic acid]: the IC50 is 46800 pM.
For `CC1(CN(CC(=O)c2c(Cl)cncc2Cl)C(=O)c2cnn([C@H]3CC[C@H](C(=O)O)CC3)c2C(F)(F)F)CC1` [Example 31, trans-4-(4-((2-(3,5-dichloropyridin-4-yl)-2-oxoethyl)((1-methylcyclopropyl)methyl)carbamoyl)-5-(trifluorornethyl)-1H-pyrazol-1-yl)cyclohexanecarboxylic acid] the value was 77600 pM.
For the compound `CC(C)CCN(CC(=O)c1c(Cl)cncc1Cl)C(=O)c1cnn([C@H]2CC[C@H](C(=O)O)CC2)c1C(F)(F)F` [Example 32, trans-4-(4-((2-(3,5-dichloropyridin-4-yl)-2-oxoethyl)(isopentyl)carbamoyl)-5-(trifluorornethyl)-1H-pyrazol-1-yl)cyclohexanecarboxylic acid], the IC50 was 81300 pM.
As for `CC(C)(C)CCN(CC(=O)c1c(Cl)cncc1Cl)C(=O)c1cnn([C@H]2CC[C@H](C(=O)O)CC2)c1C(F)(F)F` [Example 33, trans-4-(4-((2-(3,5-dichloropyridin-4-yl)-2-oxoethyl)(3,3-dimethylbutyl)carbamoyl)-5-(trifluorornethyl)-1H-pyrazol-1-yl)cyclohexanecarboxylic acid], the IC50 was 112000 pM.

Values taken from patent US9365522B2, “Pyrazole amide derivative” (AMGEN INC., priority 2015, dated 2016).
